Active and inactive are the calls of the source. How the calls were made is not given here.

The assay deals with Metabotropic glutamate receptor 4 (Homo sapiens) (UniProt Q14833). Kind of assay: PubChem AID 2180. As to conditions: CHO hmGluR4/Gqi5, calcium mobilization, glutamate CRC fold-shift. (In general: Calcium flux is commonly read through the fluorescence of an indicator in the cells.)
Sequence of Metabotropic glutamate receptor 4 (Homo sapiens) (Q14833 whole entry, looked up): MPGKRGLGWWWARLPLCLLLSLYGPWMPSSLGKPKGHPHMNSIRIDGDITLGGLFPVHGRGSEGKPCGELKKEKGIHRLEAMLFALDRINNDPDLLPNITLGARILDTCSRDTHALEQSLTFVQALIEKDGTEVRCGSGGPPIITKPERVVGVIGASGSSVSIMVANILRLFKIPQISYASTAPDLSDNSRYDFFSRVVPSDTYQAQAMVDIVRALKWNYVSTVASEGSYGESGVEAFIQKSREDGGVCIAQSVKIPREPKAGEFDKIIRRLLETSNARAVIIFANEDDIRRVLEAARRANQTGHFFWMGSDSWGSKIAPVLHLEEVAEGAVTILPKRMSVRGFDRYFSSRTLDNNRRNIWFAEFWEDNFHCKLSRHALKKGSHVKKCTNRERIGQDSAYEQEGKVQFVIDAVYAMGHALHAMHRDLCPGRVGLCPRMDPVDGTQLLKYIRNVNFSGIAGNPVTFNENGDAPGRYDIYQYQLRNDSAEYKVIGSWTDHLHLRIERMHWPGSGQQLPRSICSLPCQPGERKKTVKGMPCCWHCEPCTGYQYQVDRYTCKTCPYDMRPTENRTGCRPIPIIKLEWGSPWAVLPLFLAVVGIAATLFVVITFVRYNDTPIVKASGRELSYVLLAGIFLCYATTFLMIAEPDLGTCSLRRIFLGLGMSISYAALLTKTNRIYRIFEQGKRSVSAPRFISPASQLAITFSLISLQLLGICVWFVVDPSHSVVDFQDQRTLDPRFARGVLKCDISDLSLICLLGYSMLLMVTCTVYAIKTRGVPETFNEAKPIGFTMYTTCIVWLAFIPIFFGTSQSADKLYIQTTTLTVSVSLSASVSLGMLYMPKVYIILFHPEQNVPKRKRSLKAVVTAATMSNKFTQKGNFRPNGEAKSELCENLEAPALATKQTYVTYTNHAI
For `O=C(Nc1ccc(F)c(C(F)(F)F)c1)c1ccccn1`, the Potency was 5160 nM (inactive). In the case of `COc1cc(NC(=O)c2ccccn2)ccc1Cl`, the Potency was 381 nM. To `COc1cc(NC(=O)c2ccccn2)ccc1C` belongs 641 nM.

With `O=C(Nc1ccc(Cl)c(C(F)(F)F)c1)c1ccccn1`, the Potency was 6060 nM (inactive). With `COc1ccc(NC(=O)c2ccccn2)cc1Cl`, the Potency was 1600 nM. With `COc1cc(NC(=O)c2ccccn2)ccc1F`, the Potency is 604 nM. Turning to `O=C(Nc1cccc(Cl)c1)c1ccccn1`, the Potency was 601 nM.

For the origin of these results see PubChem BioAssay AID2180 (Vanderbilt High Throughput Screening Facility, 2009).
